Experiments:
Type in all cases: in vivo
[1] = tested on: ob/ob mice; assay: Liver weight and body weight in ob/ob mice
Method: FIG. 6 is a graph comparing the liver weight to body weight ratios of ob/ob mice treated with water, ob/ob mice treated with Formula X, and lean mice treated with water after 6 weeks of treatment.
Male ob/ob mice were obtained from the Jackson Laboratories (Bar Harbor, Me.). These mice, being deficient in leptin, are hyperphagic and rapidly become obese. Severe hepatic steatosis is a characteristic of this model. Beginning at 7 weeks of age the mice were treated with Formula X by daily oral gavage (dosed 2× per day at 60 mg/kg/dose or 120 mg/kg/day). […] After 6 weeks of treatment, the animals were sacrificed and the livers dissected and weighed. In the placebo treated ob/ob mice, the liver weight to body weight ratio was higher than in lean animals (FIG. 6). […] N=6-8 mice per group.

[2] = tested on: hepatic genes involved in lipogenesis, gluconeogenesis, inflammation, and fibrosis; assay: Quantitative RT-PCR of hepatic genes in ob/ob mice; settings: 120 mg/kg/day oral gavage, 6 weeks, vs placebo
Description: FIGS. 7A-G are a series of graphs comparing the expression of hepatic genes involved in lipogenesis, gluconeogenesis, inflammation, and fibrosis in ob/ob mice treated with water, ob/ob mice treated with Formula X, and lean mice treated with water after 6 weeks of treatment. In FIG. 7A, lower levels of sterol regulatory element binding protein 1c (SREBP-1c) RNA are observed in the drug-treated versus placebo-treated control animals. In FIG. 7B, lower levels of acid citrate lyase 1 (ACL1) are observed in the drug-treated versus placebo-treated control animals. In FIG. 7C, lower levels of acetyl coenzyme A carboxylase 1 (ACC1) are observed in the drug-treated versus placebo-treated control animals. In FIG. 7D, lower levels of fatty acid synthase (FAS) are observed in the drug-treated versus placebo-treated control animals. In FIG. 7E, lower levels of tumor necrosis factor 1 alpha (TNF-α) are observed in the drug-treated versus placebo-treated control animals. In FIG. 7F, lower levels of glucose 6-phosphatase (G6P) are observed in the drug-treated versus placebo-treated control animals. In FIG. 7G, lower levels of procollagen type 1 (collagen) are observed in the drug-treated versus placebo-treated control animals. Thus, treatment with Formula X reduced the expression of genes involved in lipogenesis (SREBP-1c, ACL1, ACC1, FAS), gluconeogenesis (G6P), inflammation (TNF-α), and fibrosis.
The ob/ob mice, beginning at 7 weeks of age, were treated with Formula X by daily oral gavage (dosed 2× per day at 60 mg/kg/dose, or 120 mg/kg/day) for 6 weeks. The mice were sacrificed and total RNA was purified from the livers for quantitative RT-PCR (FIG. 7) of sterol regulatory element binding protein 1c (SREBP-1c), acid citrate lyase 1 (ACL1), acetyl coenzyme A carboxylase 1 (ACC1), fatty acid synthase (FAS), tumor necrosis factor 1 alpha (TNF-α), glucose 6-phosphatase (G6P), and procollagen type 1 (collagen).

[3] = tested on: diet-induced obese (DIO) C57BL/6 mice; assay: Hepatic steatosis in DIO mice, hematoxylin and eosin stained liver sections; settings: 125 mg/kg daily oral gavage, 10 weeks, vs water control
Method: FIGS. 2A-2C are a series of photographs comparing hematoxylin and eosin stained liver sections of (A) diet-induced obese (DIO) C57BL/6 mice treated with water (control), (B) DIO mice treated with D-threo-1-(3′,4′-ethylenedioxy)phenyl-2-octanoylamino-3-pyrrolidino-1-propanol (Formula XI), and (C) lean mice treated with water (control). Mice were treated by daily oral gavage for 10 weeks and then sacrificed. In FIG. 1A, large vacuoles are visible throughout the parenchyma of the livers from the water-treated control mice. […] In FIG. 1C, the livers of normal, lean mice are devoid of any lipid-filled vacuoles.
Diet-induced obese (DIO) mice were first generated by placing C57BL/6 mice on a high-fat (45% of kcal) diet (D12451, Research Diets, Inc., New Brunswick, N.J.) for 8 weeks. Obese mice that had elevated glucose and insulin levels were selected and then treated with Formula XI by daily oral gavage (125 mg/kg) or with water as a control. After 10 weeks of treatment, the livers were harvested, sectioned, and stained with hematoxylin and eosin. Large vacuoles were visible throughout the parenchyma of the livers from the water control mice (FIGS. 2A-2C). These vacuoles contain neutral lipid by Oil Red O staining of the liver sections.

[4] = tested on: DIO mice; assay: Liver triglyceride levels in DIO mice (hepatic lipid extracts); settings: 75 or 125 mg/kg daily oral gavage, 16 weeks, vs water control
Method: FIG. 3 is a graph comparing the mean levels of liver triglycerides in DIO mice treated with water, DIO mice treated with 75 mg/kg Formula XI, DIO mice treated with 125 mg/kg Formula XI, and lean mice treated with water. Mice were treated by daily oral gavage for 16 weeks and then euthanized. The livers were harvested and homogenized. Triglyceride levels were measured in hepatic lipid extracts.
DIO mice were generated as described in Example 1 and then treated with Formula XI by daily oral gavage at a dose of 75 or 125 mg/kg. Mice gavaged with water served as the control. After 16 weeks of treatment the livers were harvested and homogenized. The lipids were extracted with methanol:chloroform (4.3:3 v/v) and CaCI2. The extracted lipids were dried and dissolved in dimethylsulfoxide (DMSO). Triglycerides were measured using the Serum Triglyceride Determination kit (Sigma-Aldrich, St. Louis, Mo.) according to the protocol supplied by the manufacturer.

[5] = tested on: DIO mice; assay: Liver weight and body weight in DIO mice
Method: FIG. 4 is a graph comparing the liver weight to body weight ratios of DIO mice treated with water, DIO mice treated with Formula XI, and lean mice treated with water after 9 and 17 weeks of treatment.
DIO mice were generated as described in Example 1. Mice were maintained on the high-fat diet for an additional 23 weeks (total time on diet 31 weeks). The mice were then treated with Formula XI by daily oral gavage (125 mg/kg/day). […] After 9 and 17 weeks of treatment, groups of animals were sacrificed and the livers dissected and weighed. In the DIO mice, the liver weight to body weight ratio was higher than in lean animals.

[6] = tested on: DIO mice; assay: Markers of liver toxicity in blood of DIO mice; settings: 125 mg/kg/day oral gavage, 9 weeks, vs placebo
Description: FIGS. 5A-5D are a series of graphs comparing the levels of liver enzymes in DIO mice treated with water and DIO mice treated with Formula XI for 9 weeks. In FIG. 1A, lower levels of alanine aminotransferase (ALT) are observed in the drug-treated versus placebo-treated control animals. In FIG. 1B, lower levels of aspartate aminotransferase (AST) are observed in the drug-treated versus placebo-treated control animals. In FIG. 1C, lower levels of alkaline phosphatase are observed in the drug-treated versus placebo-treated control animals. In FIG. 1D, lower levels of γ-glutamyltransferase (GGT) are observed in the drug-treated versus placebo-treated control animals.
DIO mice were generated as described in Example 1. Mice were maintained on the high-fat diet for an additional 23 weeks (total time on diet 31 weeks). The mice were then treated with Formula XI by daily oral gavage (125 mg/kg/day). Blood was collected after 9 weeks of treatment and markers of liver toxicity were analyzed (IDEXX Laboratories, West Sacramento, Calif.). Lower levels of alanine aminotransferase (ALT), aspartate aminotransferase (AST), alkaline phosphatase, and gamma-glutamyltransferase (GGT) were found in the drug-treated versus placebo-treated control animals (FIGS. 5A-5D).

Row | SMILES | liver weights ([1]; 120 mg/kg/day oral gavage, 6 weeks) | liver weight to body weight ratio ([1]; 6 weeks of treatment, vs water) | acetyl coenzyme A carboxylase 1 (ACC1) expression in liver [2] | acid citrate lyase 1 (ACL1) expression in liver [2] | fatty acid synthase (FAS) expression in liver [2] | glucose 6-phosphatase (G6P) expression in liver [2] | procollagen type 1 (collagen) expression in liver [2] | sterol regulatory element binding protein 1c (SREBP-1c) RNA level in liver [2] | tumor necrosis factor 1 alpha (TNF-α) expression in liver [2] | size of liver vacuoles [3] | vacuoles visible in the livers (neutral lipid) [3] | total triglyceride levels in the liver [4] | liver weights ([5]; 125 mg/kg/day oral gavage, 9 and 17 weeks) | liver/body weight ratio ([5]; 125 mg/kg/day oral gavage, after 17 weeks, vs lean group) | liver weight to body weight ratio ([5]; 9 and 17 weeks of treatment, vs water) | alanine aminotransferase (ALT) level [6] | alkaline phosphatase level [6] | aspartate aminotransferase (AST) level [6] | gamma-glutamyltransferase (GGT) level [6]
1 | CCCCCCCCC(=O)NC(CN1CCCC1)C(O)c1ccc2c(c1)OCCO2 (stereo not shown) [Formula X, 1-(1,4-benzodioxan-6-yl)-2-nonanoylamino-3-pyrrolidino-1-propanol] | significantly reduced | reduction | lower levels | lower levels | lower levels | lower levels | lower levels | lower levels | lower levels | – | – | – | – | – | – | – | – | – | –
2 | CCCCCCCC(=O)NC(CN1CCCC1)C(O)c1ccc2c(c1)OCCO2 (stereo not shown) [Formula XI, 1-(1,4-benzodioxan-6-yl)-2-octanoylamino-3-pyrrolidino-1-propanol] | – | – | – | – | – | – | – | – | – | appreciably smaller | significantly fewer vacuoles | dose-dependent reduction | significantly reduced | comparable to that of the lean group | reduction | Lower levels | Lower levels | Lower levels | Lower levels

From patent US9556155B2, “Methods of treating fatty liver disease” (Genzyme Corporation, priority 2006, dated 2017)
